{"source": "patent US20080051445A1", "about": "“2-Thioxothiazolidin-4-one compounds and compositions as antimicrobial and antimalarial agents targeting enoyl-ACP reductase of type II fatty acid synthesis pathway and other cell growth pathways” (NATIONAL INSTITUTE OF IMMUNOLOGY., priority 2006, published 2008)", "key": {"[1]": {"target": "PfENR (Plasmodium falciparum, UniProt Q9BH77)", "sequence (Q9BH77 entry or part of it)": "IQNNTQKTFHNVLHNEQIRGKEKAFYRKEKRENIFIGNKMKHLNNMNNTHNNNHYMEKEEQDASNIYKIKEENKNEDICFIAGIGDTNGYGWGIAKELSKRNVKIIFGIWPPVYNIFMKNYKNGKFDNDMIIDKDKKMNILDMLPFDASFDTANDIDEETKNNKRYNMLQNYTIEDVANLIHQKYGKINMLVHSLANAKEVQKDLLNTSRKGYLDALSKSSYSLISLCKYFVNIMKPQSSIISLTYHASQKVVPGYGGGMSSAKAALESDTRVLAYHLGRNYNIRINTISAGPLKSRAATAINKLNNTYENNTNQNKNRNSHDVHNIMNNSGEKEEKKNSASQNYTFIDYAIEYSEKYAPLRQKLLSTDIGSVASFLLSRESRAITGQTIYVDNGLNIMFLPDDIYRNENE", "experiment": "Inhibition of PfENR (P. falciparum enoyl-ACP reductase, PfFabI), spectrophotometric NADH/crotonoyl-CoA assay", "format": "biochemical", "protocol": "PfENR activity was determined in the presence of various concentrations of the inhibitor (25 nM to 750 nM). The percent inhibition was calculated from the residual PfENR activity and was plotted against log compound NAV-117 used. The sigmoidal curve indicates the best fit for the data and IC50 value was calculated from the graph.\nPfENR was assayed at two fixed concentrations -100 μM [·] and 200 μM [<] of crotonoyl CoA in presence of 250 nM of compound NAV-117 and 100 μM of NADH. Ki was calculated from the X-intercept. Plot indicates competitive kinetics with respect to crotonoyl CoA.\n200 nM PfENR was assayed in presence of 200 μM crotnoyl CoA, 250 nM compound NAV-117 and 50 μM [·] and 100 μM [<] of NADH. Ki of inhibitor was calculated from the. X-intercept. Plot indicates noncompetitive kinetics with respect to NADH.\nSpectrophotometric assay of enzyme activity The activity of the Enoyl-ACP reductase was assayed by following rate of the disappearance of NADH using crotonyl-CoA as a substrate. The assay mixture (100 μl) comprised of 100 μM crotonyl-CoA 100 μM NADH and 1% ethanol in […] buffer, pH 7.5. The kinetic parameters were obtained form the double reciprocal plots.\nEnzyme inhibition studies The inhibition studies were carried out by preincubating enoyl ACP reductase with the respective compound and various concentrations of the coenzymes at 4° C. for 5 hours. This was warmed to 25° C. and assay was started by the addition of the crotonyl-CoA. The inhibition constant Ki was determined by using the following equation: v=v0/(1+[I]/Ki)\nKinetics of inhibition of PfENR. We deduced the kinetics of inhibition for NAV-117 with respect to crotonoyl CoA as well as NADH. The reaction velocity was measured at a fixed concentration of substrate varying the inhibitor concentration. A graph of the reciprocal of velocity against inhibitor concentration was plotted. […] The IC50 value was calculated by ploting the residual PfENR activity against log of inhibitor concentration and fitting the data points into a sigmoidal curve (FIG. 3). […]"}, "[2]": {"system": "Chloroquine-sensitive Plasmodium falciparum FCK2 strain", "experiment": "In vitro whole-cell assay against Plasmodium falciparum in red blood cell cultures", "format": "cell-based", "protocol": "Compound NAV 117 was assayed for in vitro growth inhibition of Plasmodium falciparum by incubating the cultures with different concentrations of the inhibitors in Me2SO (final concentration, 0.05%). The cultures were checked for growth inhibition by microscopic examination by assessing the parasitemia at every 48 h (●) and 96 h (∘). The average of three data sets has been plotted, and the error bars are shown.\nIn vitro whole-cell assay against Plasmodium falciparum. Antimalarial activity of NAV-117 was checked towards the Chloroquine-sensitive Plasmodium falciparum FCK2 strain in red blood cell cultures."}}, "data": [{"smiles": "O=C1/C(=C/c2ccc(O)c(O)c2)SC(=S)N1c1ccccc1", "note": "[NAV-117, 5-(3,4-Dihydroxy-benzylidene)-3-phenyl-2-thioxo-thiazolidin-4-one]", "values": [{"measurement": "inhibition kinetics with respect to crotonoyl CoA (Dixon plot)", "setting": "[1]; 100 μM and 200 μM crotonoyl CoA, 100 μM NADH (FIG. 4)", "result": "competitive"}, {"measurement": "inhibition kinetics with respect to NADH (Dixon plot)", "setting": "[1]; 200 μM crotonoyl CoA, 50 μM and 100 μM NADH (FIG. 5)", "result": "noncompetitive"}, {"measurement": "IC50", "setting": "[1]; inhibitor 25 nM to 750 nM, sigmoidal fit (FIG. 3), read-out: IC50 value (residual PfENR activity against log of inhibitor concentration) (converted)", "result": 242, "unit": "nM"}, {"measurement": "IC50", "setting": "[2]; Erythrocyte, after 96 h, non-linear regression (FIG. 6), read-out: IC50 value for growth inhibition of the parasite", "result": "~750", "unit": "nM"}, {"measurement": "MIC", "setting": "[2]; read-out: MIC (minimum inhibitory concentration)", "result": 2.5, "unit": "µM"}]}]}
